How the values were obtained:
EGFR = conditions: cited from earlier work
tumor cells = conditions: cited from earlier work
NCI-H226 cells = test: Viability / growth of NCI-H226 squamous cell lung cancer cells treated with AG-205; assay type: cell-based; conditions: 96 hours
Experimental: FIG. 2 depicts Pgrmc1 expression and biological activity in SCLC cell lines. (A) Pgrmc1 expression was tested in a group of 3 commonly used SCLC cell lines (upper panel), and ku70 was used as a loading control (lower panel). […] Cells were maintained in medium lacking serum for the indicated time and in all cases, viability was determined by cell counting. (C) Pgrmc1 expression was inhibited by siRNA transfection (upper panel, lane 2) relative to the control transfection (upper panel, lane 1). […] Cells were maintained in media lacking serum for the indicated times. (E) The expression of the exogenous Pgrmc1-hbd protein was detected by western blot in NCI-H226 cells infected with a control adenovirus (lane 1), encoding LacZ, or the Pgrmc1-hbd expression virus (lane 2). The top panel was probed with an antibody to the HA epitope tag sequence, with which Pgrmc1-hbd is fused. (F) NCI-H226 cells were treated with increasing doses of the Pgrmc1 inhibitor AG-205 and maintained with serum (dashed line) or without serum (solid line) for 96 hours.
Tissue culture: […], SK-MES-1 and SW900 squamous cell lung cancer cells and A549 lung adenocarcinoma cells were obtained from the American type culture collection (ATCC) and cultured according to their instructions. The identities of the cell lines were confirmed by Genetica DNA Laboratories (Cincinnati, Ohio). […]
Conditioned media from control and Pgrmc1 knockdown A549 NSCLC cells were generated by incubating cells in serum-free DMEM media for 24 hours. […] For fluorescent activated cell sorting (FACS), cells were stained with propidium iodide and analyzed as described (Mallory et al., Mol Pharmacol 2005, 68: 1747-56). […] For viability assays, cells were plated in 24 well dishes, washed with PBS and harvested by trypsinization and counted using a hemocytometer. Where indicated, cells were plated in 96 well dishes, and viability was measured by 3-(4,5-Dimethylthiazol-2-yl)-2,5-diphenyltetrazolium bromide (MTT) assay, as described (Hand and Craven. J Cell Biochem 2003, 90:534-47).

For `Cc1ccc2c(c1)[C@H]1CN(C)CC[C@H]1N2C(=O)CSc1nnnn1-c1ccc(Cl)cc1` [AG-205], the “effect on EGFR levels” value (EGFR) is listed as “decreases EGFR levels”, the “effect on growth in tumor cells” value (tumor cells) is listed as “inhibits growth” and the IC50 (NCI-H226 cells; absence of serum, read-out: IC50, growth inhibition of NCI-H226 cells) is listed as 9 µM. For the same molecule, the “effect on viability of NCI-H226 cells” value (NCI-H226 cells; absence of serum, increasing doses) was “loss of viability” and the “activity on growth of NCI-H226 cells” value (NCI-H226 cells; presence of serum) was “minimal activity”.

Reference: patent US10288626B2, “Secreted tumor-associated cytochrome as a blood-based biomarker for cancer” (University of Kentucky Research Foundation, priority 2012, dated 2019)
